Assays:
[1] = Selectivity index, ratio of CC50 for human MT4 cells to EC50 for HIV13B; assay type: toxicity, cell-based; conditions: read-out: Ratio CC50/EC50
[2] = Cytotoxicity against Homo sapiens (human) MT4 cells after 5 days by MTT assay; assay type: cell-based
[3] = tested on: Human immunodeficiency virus 1; experiment: Antiviral activity against Human immunodeficiency virus 1 IIIB infected human MT4 cells assessed as inhibition of virus-induced cytopathic effect after 7 days by MTT assay; assay type: functional, organism-based; conditions: MT4, 168 h

SMILES	selectivity ratio [1]	CC50 at 120 h [2] [µM]	EC50 [3] [µM]
Nc1nc(-c2ccccc2)cc(-c2ccccc2O)n1	10	31.3	3.22
Cc1ccc(-c2cc(-c3ccccc3O)nc(N)n2)cc1		> 128	> 125
Nc1nc(-c2ccc(F)cc2)cc(-c2ccccc2O)n1		67.5	> 67.5
COc1ccc(-c2cc(-c3ccccc3O)nc(N)n2)cc1		92.2	> 92.2
Nc1nc(-c2ccc(Cl)cc2)cc(-c2ccccc2O)n1		> 74.7	> 74.7
Cc1cccc(-c2cc(-c3ccccc3O)nc(N)n2)c1	4	13	3.45
COc1cccc(-c2cc(-c3ccccc3O)nc(N)n2)c1		> 78.3	> 78.3
Nc1nc(-c2cccc(Cl)c2)cc(-c2ccccc2O)n1		> 125	> 125
COc1ccc(-c2cc(-c3ccccc3O)nc(N)n2)cc1OC		7.36	> 7.36
Nc1nc(-c2ccco2)cc(-c2ccccc2O)n1		> 125	> 125
Nc1nc(-c2cccs2)cc(-c2ccccc2O)n1		5.3	5.59
